Data as given in article PMC9885860 (Pharmacological research, 2021).
Where “and” joins values, the source holds several entries; their conditions need not be identical. Identical values can stand only once. Entries after “also recorded” stand apart in the source; their conditions may differ. Counter-ions that a name gives are not always drawn. Like-named read-outs stand apart in the source and are kept apart here.

Legend:
α2AR-D4.7R [1] = target: α2AR-D4.7R (Homo sapiens, UniProt P08913+P21917); experiment: CODA-RET Gαi1 activation, α2AR-D4.7R heteromer; type: cell-based; conditions: for Emax: Gαi1, Table 2
α2AR-D4.4R [2] = target: T1, α2AR-D4.4R (Homo sapiens, UniProt P08913+P21917); experiment: CODA-RET Gαi1 activation, α2AR-D4.4R heteromer; type: cell-based; conditions: for Emax: Gαi1, Table 2
T1 sequence (P08913 1-465): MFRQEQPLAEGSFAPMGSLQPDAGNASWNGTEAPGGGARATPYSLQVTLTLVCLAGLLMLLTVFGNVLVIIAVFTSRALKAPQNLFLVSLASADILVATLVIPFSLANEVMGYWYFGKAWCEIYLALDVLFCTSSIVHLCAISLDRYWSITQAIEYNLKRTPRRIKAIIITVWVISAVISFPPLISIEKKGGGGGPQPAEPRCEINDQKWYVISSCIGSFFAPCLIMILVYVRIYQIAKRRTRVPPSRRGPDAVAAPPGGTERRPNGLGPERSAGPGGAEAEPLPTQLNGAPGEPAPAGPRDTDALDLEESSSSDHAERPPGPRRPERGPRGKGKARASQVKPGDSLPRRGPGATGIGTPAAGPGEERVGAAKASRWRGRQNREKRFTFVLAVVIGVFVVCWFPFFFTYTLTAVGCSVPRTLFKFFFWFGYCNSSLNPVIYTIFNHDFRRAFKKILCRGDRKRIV
T1 sequence (P21917 1-419): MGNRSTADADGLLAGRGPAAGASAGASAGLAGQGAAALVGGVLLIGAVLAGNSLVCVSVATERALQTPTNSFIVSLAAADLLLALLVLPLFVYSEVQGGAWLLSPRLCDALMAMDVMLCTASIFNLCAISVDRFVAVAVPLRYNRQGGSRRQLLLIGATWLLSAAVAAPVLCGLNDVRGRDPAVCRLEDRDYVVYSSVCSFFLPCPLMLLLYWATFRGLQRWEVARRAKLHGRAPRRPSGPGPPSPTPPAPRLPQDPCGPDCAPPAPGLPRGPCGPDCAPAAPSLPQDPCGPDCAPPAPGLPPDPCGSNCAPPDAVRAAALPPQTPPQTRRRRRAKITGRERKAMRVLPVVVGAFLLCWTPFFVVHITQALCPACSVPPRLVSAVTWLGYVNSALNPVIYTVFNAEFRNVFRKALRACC

α2AR-α2AR = target: T2, α2AR-α2AR (Homo sapiens, UniProt P08913); experiment: CODA-RET Gαi1 activation, α2AR-α2AR homomer; type: cell-based; conditions: for Emax: Gαi1, Table 2
T2 sequence (P08913 1-465) 1: T1 sequence (P08913 1-465)
T2 sequence (P08913 1-465) 2: T1 sequence (P08913 1-465)

α2AR (with D4.7R) = target: T3, α2AR (with D4.7R) (Homo sapiens, UniProt P08913); experiment: BRET α2AR-RLuc and Gαo1-mVenus, cells co-transfected with unfused D4.7R; type: cell-based; conditions: in the presence of D4.7R
T3 sequence (P08913 1-465): T1 sequence (P08913 1-465)

α2AR-D4.7R [3] = experiment: CODA-RET Gαo1 activation, α2AR-D4.7R heteromer; type: cell-based, human; conditions: Fig. 4E
α2AR (with D4.4R) = target: T4, α2AR (with D4.4R) (Homo sapiens, UniProt P08913); experiment: BRET α2AR-RLuc and Gαo1-mVenus, cells co-transfected with unfused D4.4R; type: cell-based; conditions: in the presence of D4.4R
T4 sequence (P08913 1-465): T1 sequence (P08913 1-465)

D4.4R [4] = target: T5, D4.4R (Homo sapiens, UniProt P21917); type: binding
T5 sequence (P21917 1-419): T1 sequence (P21917 1-419)

α2AR-D4.7R [5] = type: binding, human; conditions: 12°C; control or in presence of A-412997 (30 nM)
human α2AR = target: T6, human α2AR (Homo sapiens, UniProt P08913); experiment: [3H]RX821002 saturation binding in HEK-293T cells transfected with human α2AR; conditions: read-out: KDA1, n=3
T6 sequence (P08913 1-465): T1 sequence (P08913 1-465)

α2AR-D4.4R [6] = target: T1, α2AR-D4.4R; type: binding; conditions: 12°C; control or in presence of A-412997 (30 nM)
α2R = target: T7, α2R (Ovis aries, UniProt A0ACI6PY47); experiment: Competitive inhibition of [3H]RX821002 binding in sheep cortex membranes; conditions: read-out: KDB1 for α2R; vs [3H]RX821002, sheep cortex membranes
T7 sequence (A0ACI6PY47 1-467): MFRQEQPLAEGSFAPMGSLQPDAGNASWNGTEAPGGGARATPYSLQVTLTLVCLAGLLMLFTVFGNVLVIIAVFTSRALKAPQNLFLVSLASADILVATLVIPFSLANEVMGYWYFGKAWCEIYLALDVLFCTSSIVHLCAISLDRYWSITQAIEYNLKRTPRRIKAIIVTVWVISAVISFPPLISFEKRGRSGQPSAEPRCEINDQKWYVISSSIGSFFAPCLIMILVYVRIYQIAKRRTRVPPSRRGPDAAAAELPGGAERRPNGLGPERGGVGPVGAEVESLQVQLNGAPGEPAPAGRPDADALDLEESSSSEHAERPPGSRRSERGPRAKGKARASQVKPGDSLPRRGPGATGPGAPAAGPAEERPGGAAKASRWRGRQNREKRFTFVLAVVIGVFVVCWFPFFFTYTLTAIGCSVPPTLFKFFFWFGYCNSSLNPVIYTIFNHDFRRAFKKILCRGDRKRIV

α2AR-D4.4R [7] = target: T1, α2AR-D4.4R; experiment: CODA-RET Gαo1 activation, α2AR-D4.4R heteromer; type: cell-based; conditions: Fig. 4D
D4.4R-D4.4R = target: T8, D4.4R-D4.4R (Homo sapiens, UniProt P21917); experiment: CODA-RET Gαi1 activation, D4.4R-D4.4R homomer; type: cell-based; conditions: A-412997 1 μM; shift to the right of DA curve
T8 sequence (P21917 1-419) 1: T1 sequence (P21917 1-419)
T8 sequence (P21917 1-419) 2: T1 sequence (P21917 1-419)

α2AR-D4.4R cells [8] = target: T9, α2AR-D4.4R cells (Homo sapiens, UniProt P08913+P21917); experiment: Forskolin-induced cAMP accumulation, α2AR-D4.4R cells; type: cell-based; conditions: agonists 100 nM, forskolin 0.5 μM
T9 sequence (P08913 1-465): T1 sequence (P08913 1-465)
T9 sequence (P21917 1-419): T1 sequence (P21917 1-419)

D4.7R-D4.7R = target: T10, D4.7R-D4.7R (Homo sapiens, UniProt P21917); conditions: A-412997 1 μM; shift to the right of DA curve
T10 sequence (P21917 1-419): T1 sequence (P21917 1-419)

[9] = system: cortical slices from hD4.7R mice; experiment: ERK1/2 phosphorylation in cortical brain slices from knock-in hD4.7R mice; design: species or system mouse; conditions: agonists 1 μM
α2AR-D4.4R cells [10] = target: T9, α2AR-D4.4R cells; experiment: ERK1/2 phosphorylation, α2AR-D4.4R cells; type: cell-based; conditions: agonists 300 nM, 5 min
D4.7R = target: T11, D4.7R (Homo sapiens, UniProt P21917); experiment: Receptor-G protein BRET, D4.7R fused to RLuc with Gαi1 or Gαo1; type: cell-based
T11 sequence (P21917 1-264 limits assumed): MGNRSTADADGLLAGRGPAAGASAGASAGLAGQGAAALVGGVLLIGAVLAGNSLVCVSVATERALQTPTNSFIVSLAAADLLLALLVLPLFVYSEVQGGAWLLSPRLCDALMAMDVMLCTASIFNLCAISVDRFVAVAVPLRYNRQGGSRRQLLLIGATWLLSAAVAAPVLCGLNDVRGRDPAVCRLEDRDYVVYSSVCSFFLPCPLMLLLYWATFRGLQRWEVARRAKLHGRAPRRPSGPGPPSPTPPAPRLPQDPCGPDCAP
T11 sequence (P21917 297-419 limits assumed): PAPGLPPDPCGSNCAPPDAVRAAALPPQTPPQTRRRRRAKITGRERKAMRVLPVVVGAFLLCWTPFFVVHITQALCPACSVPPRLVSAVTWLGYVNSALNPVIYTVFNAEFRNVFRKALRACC

D4.4R [11] = target: T5, D4.4R; experiment: Receptor-G protein BRET, D4.4R fused to RLuc with Gαi1 or Gαo1; type: cell-based
[12] = target: human α2A adrenoceptor fused to Renilla luciferase RLuc8 (α2AR-RLuc) (human) (UniProt P08913); experiment: FRET or BRET
[13] = cells pretreated with antagonist

α2AR-D4.7R (Homo sapiens, UniProt P08913+P21917), sequence (P62873 2-340, one chain of several): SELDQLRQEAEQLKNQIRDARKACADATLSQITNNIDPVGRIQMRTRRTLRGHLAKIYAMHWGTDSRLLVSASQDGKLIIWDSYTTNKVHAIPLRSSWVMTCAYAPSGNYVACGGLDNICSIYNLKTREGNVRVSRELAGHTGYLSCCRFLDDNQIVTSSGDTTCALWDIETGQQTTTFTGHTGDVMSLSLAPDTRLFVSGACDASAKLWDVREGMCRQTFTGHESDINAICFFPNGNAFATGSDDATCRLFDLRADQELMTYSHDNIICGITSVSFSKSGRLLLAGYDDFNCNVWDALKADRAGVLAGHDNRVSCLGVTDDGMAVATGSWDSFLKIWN
α2AR-D4.7R (Homo sapiens, UniProt P08913+P21917), sequence (P63096 2-354, one chain of several, further chain): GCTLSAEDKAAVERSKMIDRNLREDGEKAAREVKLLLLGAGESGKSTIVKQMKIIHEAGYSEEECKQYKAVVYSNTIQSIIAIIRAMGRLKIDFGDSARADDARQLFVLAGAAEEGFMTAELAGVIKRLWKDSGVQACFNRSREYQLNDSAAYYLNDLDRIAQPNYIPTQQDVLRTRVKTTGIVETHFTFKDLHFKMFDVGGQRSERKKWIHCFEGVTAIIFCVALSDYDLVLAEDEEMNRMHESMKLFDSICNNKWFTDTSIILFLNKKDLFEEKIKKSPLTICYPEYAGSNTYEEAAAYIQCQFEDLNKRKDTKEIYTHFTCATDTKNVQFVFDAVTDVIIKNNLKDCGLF
α2AR-D4.7R (Homo sapiens, UniProt P08913+P21917), sequence (P59768 2-68, one chain of several, further chain): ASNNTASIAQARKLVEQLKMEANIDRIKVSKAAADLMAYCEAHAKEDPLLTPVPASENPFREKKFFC

CCCN[C@H]1CCc2nc(N)sc2C1 [Pramipexole, Pramipexole dihydrochloride]
Emax (α2AR-D4.7R [1]): 48±5 % of NE
Emax (α2AR-D4.4R [2]): 28±3 % of NE

CCCN(CCc1cccs1)[C@H]1CCc2c(O)cccc2C1 [Rotigotine, Rotigotine hydrochloride]
Emax (α2AR-D4.7R [1]): did not produce any response and 0 % of NE
EC50 (α2AR-D4.4R [2]): 7 ± 5 nM
Emax (α2AR-D4.4R [2]): 13±2 % of NE
Emax (α2AR-D4.4R [2]; listed as rotigotine): small Gαi1 protein activation
Emax (α2AR-α2AR): 0 % of NE
Emax (α2AR-α2AR; listed as rotigotine): ineffective; also recorded: did not produce any response

Cc1cccc([C@H](C)c2cnc[nH]2)c1C [Dexmedetomidine, Dexmedetomidine hydrochloride]
Emax (α2AR-α2AR): 26±3 % of NE
α2AR-mediated Gαo1 activation (α2AR (with D4.7R)): promotes a significant α2AR-mediated Gαo1 activation
Gαo1 activation (α2AR-D4.7R [3]): able to activate Gαo1
α2AR-mediated Gαo1 activation (α2AR (with D4.4R)): promotes a significant α2AR-mediated Gαo1 activation
Kd (D4.4R [4]): 2000 to 6000 nM

CC1c2ccccc2CN1CC1=NCCN1.O=C(O)/C=C\C(=O)O (stereo not shown) [BRL44408, BRL 44408 maleate]
antagonist effect on NE- and DA-induced Gαi1 activation (α2AR-D4.7R [1]; [13]): significantly decreased the potency of NE and DA
antagonist effect on NE- and DA-induced Gαi1 activation (α2AR-D4.4R [2]; [13]): significantly decreased the potency of NE and DA
antagonist effect on NE- and DA-induced Gαi1 activation (α2AR-α2AR; [13]): significantly decreased the potency of NE and DA

COC1(C2=NCCN2)COc2ccccc2O1 (stereo not shown) [[^3H]RX821002]
RT (residence time) of [3H]RX821002 (α2AR-D4.7R [5]): 17 min
koff of [3H]RX821002 (α2AR-D4.7R [5]): 0.000967 ± 3.3e-05 s⁻¹
Kd (human α2AR): 0.62 ± 0.05 nM
RT1 (residence time) of [3H]RX821002 (α2AR-D4.4R [6]): 7 min
RT2 (residence time) of [3H]RX821002 (α2AR-D4.4R [6]): 50 min
koff1 of [3H]RX821002 (α2AR-D4.4R [6]): 0.14 ± 0.03 min⁻¹
koff2 of [3H]RX821002 (α2AR-D4.4R [6]): 0.020 ± 0.004 min⁻¹

Clc1cccc(Cl)c1N=C1NCCN1 [Clonidine, Clonidine hydrochloride]
Emax (α2AR-D4.4R [2]): 0 % of NE
Emax (α2AR-D4.4R [2]; listed as clonidine): complete lack of efficacy
Emax (α2AR-α2AR): 18±2 % of NE

CCCN(CCC)CCc1cccc2c1CC(=O)N2 [Ropinirole]
EC50 (α2AR-D4.4R [2]): 400 ± 200 nM
Emax (α2AR-α2AR): ineffective

Cc1cccc(C(=O)NCN2CCN(c3ccccc3C#N)CC2)c1 [PD168077]
Kd (α2R): 80 ± 10 nM

COC1(C2=NCCN2)COc2ccccc2O1.Cl (stereo not shown) [RX821002, RX 821002 hydrochloride]
displacement of [3H]YM-09151-2 (D4.4R [4]; any concentration up to 10 μM): did not displace

Cc1cccc(NC(=O)CN2CCC(c3ccccn3)CC2)c1.Cl.Cl [A-412997, A-412997 dihydrochloride]
Emax (α2AR-D4.7R [1]): 0 % of NE
Gαo1 activation (α2AR-D4.4R [7]): promoted Gαo1 activation
effect on DA-mediated Gi protein activation (D4.4R-D4.4R): competitive antagonist of DA
inhibition of forskolin-induced cAMP accumulation (α2AR-D4.4R cells [8]): more effective than dexmedetomidine
koff1 of [3H]RX821002 (α2AR-D4.4R [6]): 0.25±0.07 ^* min^−1
koff2 of [3H]RX821002 (α2AR-D4.4R [6]): 0.036±0.007 ^* min^−1
effect on DA-mediated Gi protein activation (D4.7R-D4.7R): competitive antagonist of DA
Kd (α2R): 1400 nM
MAPK activation (ERK1/2 phosphorylation) [9]: significantly weaker than of dexmedetomidine
ERK1/2 phosphorylation (α2AR-D4.4R cells [10]): more effective in α2AR-D4.4R cells than in α2AR-D4.7R cells
Kd (D4.4R [4]; read-out: KDB1, vs [3H]YM-09151-2, HEK-293T co-expressing α2AR and D4.4R, n=3): 1.1 ± 0.1 nM
Gαi1 activation (D4.7R; Gαi1-mVenus): did not promote
Gαo1 activation (D4.7R; Gαo1-mVenus): did promote significant Gαo1 activation
Gαi1 activation (D4.4R [11]; Gαi1-mVenus): did not promote
Gαo1 activation (D4.4R [11]; Gαo1-mVenus): did promote significant Gαo1 activation

human dopamine D4.7 receptor fused to YFP (D4.7R-YFP)
BRET50 [12]: 60

NC[C@H](O)c1ccc(O)c(O)c1 [NE, norepinephrine]
increase in NE potency on α2AR-D4.7R compared with α2AR-D4.4R (α2AR-D4.7R [1]; Gαi1 CODA-RET): five-fold
Emax (α2AR-α2AR): 100±3 % of NE

N=C(N)NC(=O)Cc1c(Cl)cccc1Cl [Guanfacine, Guanfacine hydrochloride]
Emax (α2AR-D4.7R [1]): 20±3 % of NE
Emax (α2AR-D4.4R [2]): 0 % of NE
Emax (α2AR-D4.4R [2]; listed as guanfacine): complete lack of efficacy
Emax (α2AR-α2AR): 14±2 % of NE
